Data taken from US4500526A, “Cephalosporin derivatives” (Bristol-Myers Company, priority 1983, dated 1985).
In brackets after ≈: the same amount, converted by molar mass. Like-named read-outs stand apart in the source and are kept apart here.

How the values were obtained:
[1] = system: Cephalothinresistant E. coli (3 strains) and Kl. pneumoniae (3 strains); assay: MIC, two-fold serial agar dilution, group (G-)-Ib; assay type: cell-based; details: Escherichia coli, read-out: Geometric Mean of MIC
Method in brief: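 MICs by two-fold serial agar dilution in Mueller-Hinton agar against cephalothin-resistant E. coli and Klebsiella pneumoniae strains. Compound weights were corrected for purity.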

[2] = system: Cephalothinsensitive E. coli (2 strains), Kl. pneumoniae (1 strain) and Pr. mirabilis (2 strains); assay: MIC, two-fold serial agar dilution, group (G-)-Ia; assay type: cell-based; details: 5 strains, Mueller-Hinton agar, read-out: Geometric Mean of MIC
Method in brief: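 Mueller-Hinton agar, two-fold serial dilution; test compound weights corrected for purity so MICs reflect actual compound content.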

[3] = system: M. morganii (1 strain), Ent. cloacae (2 strains) and Ser. marcescens (2 strains); assay: MIC, two-fold serial agar dilution, group (G-)-II; assay type: cell-based; details: (G-)-II, 5 strains, Mueller-Hinton agar; read-out: Geometric Mean of MIC
Method in brief: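 Two-fold serial agar dilution in Mueller-Hinton agar; test-compound sample weights adjusted for purity of each compound before MIC determination.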

[4] = system: Ps. aeruginosa (6 strains); assay: MIC, two-fold serial agar dilution, group (G-)-III; assay type: cell-based; details: Pseudomonas aeruginosa; (G-)-III, 6 strains, Mueller-Hinton agar; read-out: Geometric Mean of MIC
Method: In the primary evaluation of the compounds of this invention, the Minimum Inhibitory Concentrations (MIC's) of the compounds were determined by the two-fold serial agar dilution method in Mueller-Hinton agar against 32 strains of test organisms in six groups. The sample weights of the test compounds were adjusted according to the purity of each compound, so as to give a more accurate measure of the MIC's.
(G-)III: Ps. aeruginosa (6 strains)

N. meningitidis (5) = assay: In vitro activity against fastidious bacteria, two-fold serial agar dilution; assay type: cell-based; details: Neisseria meningitidis, read-out: Geometric Mean of MIC
Method: (§1) The in vitro activity of some of the preferred compounds against 30 strains of fastidious bacteria was determined by the two-fold serial agar dilution method in Gonococcus agar (GC agar), and the results are shown in Table 3.

S. pneumoniae (5) = assay: as above; assay type: cell-based; details: Streptococcus pneumoniae; GC agar; read-out: Geometric Mean of MIC
Method: as §1

S. pyogenes (5 strains) = assay: as above; assay type: cell-based; details: Streptococcus pyogenes; GC agar; read-out: Geometric Mean of MIC
Method: as §1

[5] = system: H. influenzae (3) (ampicillin resistant); assay: as above; assay type: cell-based; details: Haemophilus influenzae, read-out: Geometric Mean of MIC
Method: as §1

N. gonorrhoeae (5) = assay: as above; assay type: cell-based; details: Neisseria gonorrhoeae, read-out: Geometric Mean of MIC
Method: as §1

P. aeruginosa A21509 = assay: Median protective dose in infected mice; assay type: in vivo; details: Pseudomonas aeruginosa, im, immediately after intraperitoneal challenge, read-out: PD50
Method: The median protective dose (PD50) of some of the preferred compounds against various microorganisms was determined in mice by intramuscular administration of the test compound immediately after an intraperitoneal bacterial challenge.

Solubility in water = assay type: physicochemical
Method: A more soluble form of Compound Ia was prepared as follows. […] Powdered NaHCO3 was added in small portions, with stirring. A clear solution was obtained after adding 5.0 mg of NaHCO3 and the indicated pH then was 6.0. After filtration through a Millipore membrane filter to remove they insoluble impurities, the filtrate was lyophilized to give 245 mg of a water-soluble form of Compound Ia, mp 165° C. Estimated purity 80% (by HPLC). The sample was completely soluble in water to give a 25% solution.
To a stirred solution of diphenylmethyl 7-[(Z)-2-t-butoxycarbonylprop-2-oxyimino)-2-(2-tritylaminothiazol-4-yl)-acetamido]-3-iodomethyl-3-cephem-4-carboxylate [VIId'] (700 mg, 0.66 mmole) in 3 mL of DMSO, was added thiazolo[4,5-c]pyridine (115 mg, 0.84 mmole) in two portions and the mixture was stirred for 1.25 hours at room temperature. The reaction mixture was diluted with ether (150 mL) to separate an oily product, which was washed again with ether. The residue was dissolved in methylene chloride (100 mL) and the solution was filtered and evaporated to give 655 mg of the blocked product [XIIId']. The yellow product (630 mg) was suspended in anisole (1 mL) and, with ice cooling, was treated with a mixture of TFA (10 mL) and water (0.5 mL). The mixture was stirred for 20 minutes with ice cooling and then for 1 hour at room temperature. After evaporation of the mixture below 30° C., the residue was triturated with isopropyl ether (50 mL). The precipitate was collected by filtration, and dried under reduced pressure to obtain 485 mg of crude title compound as a yellow powder. The crude product (480 mg) was dissolved in a small volume of aqueous sodium bicarbonate and purified by HPLC (Column, Lichrosorb RP-18; mobile phase, water). The desired fractions were combined (ca. 90 mL) and acidified to pH 2 with dilute hydrochloric acid. The acidified solution was passed through an HP-20 column (50 mL) and washed with water (200 mL). […] Mp >180° C. (dec.).
The free acid of Compound Id (100 mg) was dissolved in a small volume of aqueous sodium bicarbonate and subjected to HPLC (Column, Lichrosorb RP-18; mobile phase, water). The eluate containing the desired product which was concentrated and lyophilized to give 30 mg of the sodium salt of Id as a pale yellow amorphous powder, which was more than 25% soluble in water. Mp 178°-196° C. (dec.).
A solution of diphenylmethyl 7-[(Z)-(2-t-butoxycarbonylprop-2-oxyimino)-2-(2-tritylaminothiazol-4-yl)acetamido]-3-iodomethyl-3-cephem-4-carboxylate [VIId'] (9.0 g, 8.5 mmoles) and thiazolo[4,5-c]pyridine (1.5 g, 11 mmoles) in dimethylsulfoxide (38 mL) was stirred at room temperature for 1 hour. The reaction mixture was poured into ether (500 mL) and, after decantation, the oily precipitate was dissolved in chloroform (300 mL). […]

[6] = system: Penicillinsensitive S. aureus (5 strains); assay: MIC, two-fold serial agar dilution, group (G+)-Ia; assay type: cell-based; details: Staphylococcus aureus; (G+)-Ia, 5 strains, Mueller-Hinton agar; read-out: Geometric Mean of MIC
Method in brief: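 Two-fold serial agar dilution in Mueller-Hinton agar. Compound weights corrected for purity. Group comprises 5 penicillin-sensitive S. aureus strains.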

| SMILES | MIC [1] [µg/mL] | MIC [2] [µg/mL] | MIC [3] [µg/mL] | MIC [4] [µg/mL] | MIC (N. meningitidis (5); GC agar) [µg/mL] | MIC (S. pneumoniae (5)) [µg/mL] | MIC (S. pyogenes (5 strains)) [µg/mL] | MIC ([5]; GC agar, ampicillin resistant, 3 strains) [µg/mL] | MIC (N. gonorrhoeae (5); GC agar) [µg/mL] | ED50 (P. aeruginosa A21509) [mg/kg] | solubility in water (Solubility in water; 250 mg in distilled water 1.0 mL, indicated pH 4.3) | solubility (Solubility in water; water-soluble form (NaHCO3 to pH 6.0, lyophilized)) [mg/mL] | MIC [6] [µg/mL] | MIC (N. meningitidis (5)) [µg/mL] | MIC [5] [µg/mL] | MIC (N. gonorrhoeae (5)) [µg/mL] | solubility in water (Solubility in water; free acid) | solubility (Solubility in water; water, sodium salt) [mg/mL] |
| --- | --- | --- | --- | --- | --- | --- | --- | --- | --- | --- | --- | --- | --- | --- | --- | --- | --- | --- |
| CO/N=C(\C(=O)NC1C(=O)N2C(C(=O)[O-])=C(C[n+]3ccc4scnc4c3)CS[C@H]12)c1csc(N)n1 (some centres unmarked) [Ia, 7-[(Z)-2-(2-Aminothiazol-4-yl)-2-methoxyiminoacetamido]-3-{(5-thiazolo[4,5-c]pyridinio)methyl}-3-cephem-4-carboxylate] | 0.16 (≈ 0.301 µM) | 0.02 (≈ 0.0376 µM) | 0.16 (≈ 0.301 µM) | 2.6 (≈ 4.89 µM) | 0.0125 (≈ 0.0235 µM) | 0.0125 (≈ 0.0235 µM) | 0.0125 (≈ 0.0235 µM) | 0.0125 (≈ 0.0235 µM) | 0.0125 (≈ 0.0235 µM) | 6.25 | not completely soluble | ≥ 250 | 0.42 (≈ 0.79 µM) | – | – | – | – | – |
| CC(C)(O/N=C(\C(=O)NC1C(=O)N2C(C(=O)[O-])=C(C[n+]3ccc4scnc4c3)CS[C@H]12)c1csc(N)n1)C(=O)O (some centres unmarked) [Id, 7-[(Z)-2-(2-Aminothiazol-4-yl)-2-(2-carboxyprop-2-oxyimino)-acetamido]-3-{(5-thiazolo[4,5-c]pyridinio)methyl}-3-cephem-4-carboxylate] | 0.71 (≈ 1.18 µM) | 0.04 (≈ 0.0663 µM) | 0.88 (≈ 1.46 µM) | 1.4 (≈ 2.32 µM) | – | 0.2 (≈ 0.331 µM) | 0.2 (≈ 0.331 µM) | – | – | 5 | – | – | 4.4 (≈ 7.29 µM) | 0.1 (≈ 0.166 µM) | 0.1 (≈ 0.166 µM) | 0.1 (≈ 0.166 µM) | slightly soluble in water | > 250 |
